# Data published in patent publication US7846963B2, “2-oxo-heterocyclic compounds and the pharmaceutical compositions comprising the same” (Korea Research Institute of Bioscience and Biotechnology, priority 2003, dated 2010).
# Test system: production of TNF-alpha in RAW 264.7 cells
# Test: Inhibition of TNF-alpha production in LPS-treated RAW 264.7 cells, ELISA of culture supernatant
# Type: cell-based, mouse
# Details: Mus musculus, RAW264.7, Table 23, LPS 0.3 μg/ml, 24 hours, compounds up to 10 μM, IC50 unit inferred
# Method: To test the inhibiting activity of the compounds prepared from above Examples on the production of TNF-alpha, the concentration of TNF-alpha in the cell supernatant was measured.
# Each 200 μl of RAW 264.7 cells (ATCC, USA), a mouse macrophage cell line was seeded onto each well of 96-well microtiter plate (Nunc, Sweden) to the concentration ranging from 1×10^6 cells/ml to 5×10^6 cells/ml, and incubated in DMEM (Dulbeco's modified eagles medium) media containing 5% FBS (fetal bovine serum) at 37° C. in 5% CO2 incubator.
# Various concentrations of the compounds of the present invention ranging from […] to 10 μM and LPS (Sigma, USA) in the final concentration of 0.3 μg/ml were treated to activated cell simultaneously. The treated cells were cultured at 37° C. for 24 hours in 5% CO2 incubator and the cultured cells were collected after the cultivation
# And then the concentration of TNF-alpha secreted from the culture supernatant of RAW 264.7 cells was determined by ELISA according to the manufacture's instruction (R&D Systems, Minneapolis, Minn.).
# The result was shown in Table 23 (AA: IC50's<1, A: IC50's<5, B: IC50's<10, C: IC50's>10).
row,IC50,Compound
1,< 5 µM,"O=C(CCC1=CCN(CCc2cccc(F)c2)C1=O)NO [Example 29, 3-{1-[2-(3-fluoro-phenyl)-ethyl]-2-oxo-2,5-dihydro-1H-pyrrol-3-yl}-N-hydroxy-propionamide]"
2,< 5 µM,"O=C(CC1=CCCN(CCCCc2ccccc2)C1=O)NO [Example 86, N-hydroxy-2-[2-oxo-1-(4-phenyl-butyl)-1,2,5,6-tetrahydro-pyridin-3-yl]-N-hydroxy-acetamide]"
3,> 10 µM,"CS(=O)(=O)N(c1ccc(CN2CCC=C(CCC(=O)NO)C2=O)cc1)S(C)(=O)=O [Example 76, N-hydroxy-3-[1-(4-dimethylsulfonylamino-benzyl)-2-oxo-1,2,5,6-tetrahydro-pyridin-3-yl]-propionamide]"
4,> 10 µM,"COc1ccc(CN2CCC(CC(=O)NO)C2=O)c(OC)c1 (centres unmarked) [Example 26, 2-[1-(2,4-dimethoxy-benzyl)-2-oxo-pyrrolidin-3-yl]-N-hydroxy-acetamide]"
5,> 10 µM,"O=C(CC1CCN(Cc2ccccc2)C1=O)NO (centres unmarked) [Example 25, 2-(1-benzyl-2-oxo-pyrrolidin-3-yl)-N-hydroxy-acetamide]"
6,< 5 µM,"COc1ccc(CN2CCC=C(CC(=O)NO)C2=O)c(OC)c1 [Example 82, 2-[1-(2,4-dimethoxy-benzyl)-2-oxo-1,2,5,6-tetrahydro-pyridin-3-yl]-N-hydroxy-acetamide]"
7,< 1 µM,Cc1ccc(S(=O)(=O)Nc2ccc(CN3CCC=C(CCC(=O)O)C3=O)cc2)cc1 [Example 80]
8,< 10 µM,"O=C(CCC1=CCN(Cc2ccc([N+](=O)[O-])cc2)C1=O)NO [Example 15, N-hydroxy-3-[1-(4-nitro-benzyl)-2-oxo-2,5-dihydro-1H-pyrrol-3-yl]-propionamide]"
9,< 5 µM,"O=C(CC1=CCCN(Cc2ccc([N+](=O)[O-])cc2)C1=O)NO [Example 84, N-hydroxy-2-[1-(4-nitro-benzyl)-2-oxo-1,2,5,6-tetrahydro-pyridin-3-yl)-N-hydroxy-acetamide]"
10,< 5 µM,"Cc1cccc(CN2CC=C(CCC(=O)NO)C2=O)c1 [Example 7, N-hydroxy-3-[1-(3-methyl-benzyl)-2-oxo-2,5-dihydro-1H-pyrrol-3-yl]-propionamide]"
11,< 5 µM,"O=C(O)CC1=CCCN(CCc2ccccc2)C1=O [Example 89, (2-oxo-1-phenethyl-1,2,5,6-tetrahydro-pyridin-3-yl)-acetic acid]"
12,< 10 µM,"Cc1ccc(S(=O)(=O)Nc2ccc(CN3CC=C(CCC(=O)NO)C3=O)cc2)cc1 [Example 19, N-hydroxy-3-{2-oxo-1-[4-(toluene-4-sulfonylamino)-benzyl]-2,5-dihydro-1H-pyrrol-3-yl}-propionamide]"
13,< 1 µM,"CN1CCC=C(CCC(=O)NO)C1=O [Example 102, N-hydroxy-3-(1-methyl-2-oxo-1,2,5,6-tetrahydro-pyridin-3-yl)-propionamide]"
14,< 5 µM,O=C(CCCC1=CCCN(CCCCc2ccccc2)C1=O)NO [Example 98]
15,> 10 µM,"O=C(CCC1=CCN(Cc2ccc(OCc3ccccc3)cc2)C1=O)NO [Example 14, 3-[1-(4-benzyloxy-benzyl)-2-oxo-2,5-dihydro-1H-pyrrol-3-yl]-N-hydroxy-propionamide]"
16,< 10 µM,"O=C(CC1=CCCN(CCCc2ccccc2)C1=O)NO [Example 85, N-hydroxy-2-[2-oxo-1-(3-phenyl-propyl)-1,2,5,6-tetrahydro-pyridin-3-yl]-N-hydroxy-acetamide]"
17,< 5 µM,"O=C(CCCC1=CCCN(CCCc2ccccc2)C1=O)NO [Example 97, N-hydroxy-4-[2-oxo-1-(3-phenyl-propyl)-1,2,5,6-tetrahydro-pyridin-3-yl]-butylamide]"
18,< 5 µM,"O=C(CCC1=CCCN(Cc2ccc3ccccc3c2)C1=O)NO [Example 103, N-hydroxy-3-(1-(naphthalene-2-yl-methyl)-2-oxo-1,2,5,6-tetrahydro-pyridin-3-yl)-propionamide]"
19,< 5 µM,"O=C(CCC1=CCCN(Cc2ccc([N+](=O)[O-])cc2)C1=O)NO [Example 59, N-hydroxy-3-[1-(4-nitro-benzyl)-2-oxo-1,2,5,6-tetrahydro-pyridin-3-yl)-propionamide]"

row,IC50,Compound
1,< 5 µM,"CC(C)c1ccc(CCCN2CC=C(CCC(=O)NO)C2=O)cc1 [Example 43, N-hydroxy-3-{1-[3-(4-isopropyl-phenyl)-propyl]-2-oxo-2,5-dihydro-1H-pyrrol-3-yl]-propionamide]"
2,> 10 µM,"O=C(CC1=CCN(Cc2ccccc2)C1=O)NO [Example 20, 2-(1-benzyl-2-oxo-2,5-dihydro-1H-pyrrol-3-yl)-N-hydroxy-acetamide]"
3,< 5 µM,"O=C(CCC1=CCN(CCCc2ccc(Br)cc2)C1=O)NO [Example 44, 3-{1-[3-(4-bromo-phenyl)-propyl]-2-oxo-2,5-dihydro-1H-pyrrol-3-yl]-N-hydroxy-propionamide]"
4,< 5 µM,"O=C(CCC1=CCN(CCc2cccc3ccccc23)C1=O)NO [Example 52, N-hydroxy-3-[1-(2-naphthalene-1-yl-ethyl)-2-oxo-2,5-dihydro-1H-pyrrol-3-yl]-propionamide]"
5,< 5 µM,"CC(=O)Nc1ccc(CN2CCC=C(CCC(=O)O)C2=O)cc1 [Example 78, 3-[1-(4-acetylamino-benzyl)-2-oxo-1,2,5,6-tetrahydro-pyridin-3-yl]-propionic acid]"
6,< 5 µM,"COc1ccc(CN2CCCC(CC(=O)NO)C2=O)c(OC)c1 (centres unmarked) [Example 92, 2-[1-(2,4-dimethoxy-benzyl)-2-oxopiperidine-3-yl]-N-hydroxy-acetamide]"
7,> 10 µM,"O=C(CCC1=CCCN(CCc2cccs2)C1=O)NO [Example 104, N-hydroxy-3-[2-oxo-1-(2-thiophen-2-yl-ethyl)-1,2,5,6-tetrahydro-pyridin-3-yl]-propionamide]"
8,> 10 µM,"O=C(CCC1=CCN(CCc2cccc([N+](=O)[O-])c2)C1=O)NO [Example 32, N-hydroxy-3-{1-[2-(3-nitro-phenyl)-ethyl]-2-oxo-2,5-dihydro-1H-pyrrol-3-yl}-propionamide]"
9,< 5 µM,"O=C(CCC1=CCN(CCc2ccccc2Br)C1=O)NO [Example 34, 3-{1-[2-(2-bromo-phenyl)-ethyl]-2-oxo-2,5-dihydro-1H-pyrrol-3-yl}-N-hydroxy-propionamide]"
10,< 10 µM,"COc1ccc(CN2CCC=C(CCC(=O)NO)C2=O)c(OC)c1 [Example 57, 3-[1-(2,4-Dimethoxybenzyl)-2-oxo-1,2,5,6-tetrahydropyridin-3-yl]N-hydroxypropionamide]"
11,< 1 µM,"C=CCN1CCC=C(CCC(=O)NO)C1=O [Example 101, 3-(1-Allyl-2-oxo-1,2,5,6-tetrahydro-pyridin-3-yl)-N-hydroxy-propionamide]"
12,< 10 µM,"O=C(CCC1=CCN(CCc2ccc([N+](=O)[O-])cc2)C1=O)NO [Example 33, N-hydroxy-3-{1-[2-(4-nitro-phenyl)-ethyl]-2-oxo-2,5-dihydro-1H-pyrrol-3-yl}-propionamide]"
13,< 5 µM,"O=C(CCC1=CCN(CCc2ccccc2)C1=O)NO [Example 3, N-hydroxy-3-(2-oxo-1-phenethyl-2,5-dihydro-1H-pyrrol-3-yl)-propionamide]"
14,> 10 µM,"O=C(O)CCC1=CCN(Cc2ccccc2)C1=O [Example 17, 3-(1-benzyl-2-oxo-2,5-dihydro-1H-pyrrol-3-yl)-propionic acid]"
15,< 5 µM,"Cc1ccccc1CN1CC=C(CCC(=O)NO)C1=O [Example 6, N-hydroxy-3-[1-(2-methyl-benzyl)-2-oxo-2,5-dihydro-1H-pyrrol-3-yl]-propionamide]"
16,> 10 µM,"COc1ccc(CN2CC=C(CCC(=O)O)C2=O)c(OC)c1 [Example 16, 3-[1-(2,4-dimethoxy-benzyl)-2-oxo-2,5-dihydro-1H-pyrrol-3-yl]-propionic acid]"
17,> 10 µM,"C=CCN1CC=C(CCC(=O)NO)C1=O [Example 51, 3-(1-allyl-2-oxo-2,5-dihydro-1H-pyrrol-3-yl)-N-hydroxy-propionamide]"
18,> 10 µM,"O=C(CC1=CCN(CCc2ccccc2)C1=O)NO [Example 22, N-hydroxy-2-(2-oxo-1-phenethyl-2,5-dihydro-1H-pyrrol-3-yl)-acetamide]"
19,< 5 µM,"O=C(CCCC1=CCCN(CCc2ccccc2)C1=O)NO [Example 96, 4-(1-phenethyl-2-oxo-1,2,5,6-tetrahydro-pyridin-3-yl)-N-hydroxy-butylamide]"
